Measurements as given in PubChem BioAssay AID1963440 (Molecular Pharmacology Branch, DTP, NCI, 2024).

Tested on: NCI-H1417 complex spheroids, growth % test/control
Assay: Anticancer human tumor NCI-H1417 cell line growth inhibition [Asc];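 further: spheroids exposed to compounds for 7 days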;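 on viability, T/C: 100% = DMSO vehicle control wells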
Details: for IC50: curve of first compound; for viability, T/C: stronger effect = lower value
Outline: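 Complex solid-tumor spheroids incorporating human endothelial and mesenchymal stem cells received single agents or combinations over half-log dilution ranges anchored to clinical Cmax.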

In the case of `C=C(F)C(=O)N1CCN(c2nc(OCC3CCCN3C)nc3c2CCN(c2cccc4cccc(Cl)c24)C3)CC1CC#N` (stereo not given) + CNC(C)C(=O)NC1CN(S(=O)(=O)c2cccc(S(=O)(=O)N3CCC4CCC(C(=O)NC(c5ccccc5)c5ccccc5)N4C(=O)C(NC(=O)C(C)NC)C3)c2)CCC2CCC(C(=O)NC(c3ccccc3)c3ccccc3)N2C1=O, the IC50 (second compound 0.01 µM) is reported as 4.6 µM, the IC50 (second compound 0.0316 µM) is reported as 3.76 µM and the IC50 (second compound 0.1 µM) is reported as 3.98 µM. For the same molecule, the IC50 (second compound 0.316 µM) was 3.07 µM, the IC50 (second compound 1 µM) was 3.23 µM and the viability, T/C (second compound 0.01 µM, first compound 0.0316 µM) was 111%. For the same molecule, the viability, T/C (second compound 0.01 µM, first compound 0.1 µM) was 101%, the viability, T/C (second compound 0.01 µM, first compound 0.316 µM) was 106% and the viability, T/C (second compound 0.01 µM, first compound 1 µM) was 92.2%. It also gave a viability, T/C (second compound 0.01 µM, first compound 3.16 µM) of 76.2%, a viability, T/C (second compound 0.01 µM, first compound 10 µM) of 0.22% and a viability, T/C (second compound 0.0316 µM, first compound 0.0316 µM) of 98.6%. The viability, T/C (second compound 0.0316 µM, first compound 0.1 µM) was 102%, the viability, T/C (second compound 0.0316 µM, first compound 0.316 µM) was 93.2% and the viability, T/C (second compound 0.0316 µM, first compound 1 µM) was 105%. The viability, T/C (second compound 0.0316 µM, first compound 3.16 µM) was 58.8%, the viability, T/C (second compound 0.0316 µM, first compound 10 µM) was 0.2% and the viability, T/C (second compound 0.1 µM, first compound 0.0316 µM) was 90.6%. It also gave a viability, T/C (second compound 0.1 µM, first compound 0.1 µM) of 99.5%, a viability, T/C (second compound 0.1 µM, first compound 0.316 µM) of 89.8% and a viability, T/C (second compound 0.1 µM, first compound 1 µM) of 90%. It also gave a viability, T/C (second compound 0.1 µM, first compound 3.16 µM) of 62.3%, a viability, T/C (second compound 0.1 µM, first compound 10 µM) of 0.2% and a viability, T/C (second compound 0.316 µM, first compound 0.0316 µM) of 94.5%. For the same molecule, the viability, T/C (second compound 0.316 µM, first compound 0.1 µM) was 90.8%, the viability, T/C (second compound 0.316 µM, first compound 0.316 µM) was 94.8% and the viability, T/C (second compound 0.316 µM, first compound 1 µM) was 97.1%. The viability, T/C (second compound 0.316 µM, first compound 3.16 µM) was 48.9%, the viability, T/C (second compound 0.316 µM, first compound 10 µM) was 0.21% and the viability, T/C (second compound 1 µM, first compound 0.0316 µM) was 95.2%. It also gave a viability, T/C (second compound 1 µM, first compound 0.1 µM) of 101%, a viability, T/C (second compound 1 µM, first compound 0.316 µM) of 106% and a viability, T/C (second compound 1 µM, first compound 1 µM) of 101%. It also gave a viability, T/C (second compound 1 µM, first compound 3.16 µM) of 50.9% and a viability, T/C (second compound 1 µM, first compound 10 µM) of 1.03%.
`CCN1C(C(=O)NC23CCC(C(=O)O)(CC2)CC3)C(c2cccc(Cl)c2F)C2(C(=O)Nc3cc(Cl)ccc32)C12CCCCC2` (stereo not given) + CNC(C)C(=O)NC1CN(S(=O)(=O)c2cccc(S(=O)(=O)N3CCC4CCC(C(=O)NC(c5ccccc5)c5ccccc5)N4C(=O)C(NC(=O)C(C)NC)C3)c2)CCC2CCC(C(=O)NC(c3ccccc3)c3ccccc3)N2C1=O showed an IC50 (second compound 0.01 µM) greater than 3 µM, an IC50 (second compound 0.0316 µM) greater than 3 µM and an IC50 (second compound 0.1 µM) greater than 3 µM. For the same molecule, the IC50 (second compound 0.316 µM) was greater than 3 µM, the IC50 (second compound 1 µM) was greater than 3 µM and the viability, T/C (second compound 0.01 µM, first compound 0.00949 µM) was 105%. For the same molecule, the viability, T/C (second compound 0.01 µM, first compound 0.03 µM) was 104%, the viability, T/C (second compound 0.01 µM, first compound 0.0949 µM) was 105% and the viability, T/C (second compound 0.01 µM, first compound 0.3 µM) was 99.7%. It also gave a viability, T/C (second compound 0.01 µM, first compound 0.949 µM) of 106%, a viability, T/C (second compound 0.01 µM, first compound 3 µM) of 120% and a viability, T/C (second compound 0.0316 µM, first compound 0.00949 µM) of 107%. The viability, T/C (second compound 0.0316 µM, first compound 0.03 µM) was 118%, the viability, T/C (second compound 0.0316 µM, first compound 0.0949 µM) was 106% and the viability, T/C (second compound 0.0316 µM, first compound 0.3 µM) was 86%. For the same molecule, the viability, T/C (second compound 0.0316 µM, first compound 0.949 µM) was 101%, the viability, T/C (second compound 0.0316 µM, first compound 3 µM) was 96.2% and the viability, T/C (second compound 0.1 µM, first compound 0.00949 µM) was 103%. For the same molecule, the viability, T/C (second compound 0.1 µM, first compound 0.03 µM) was 102%, the viability, T/C (second compound 0.1 µM, first compound 0.0949 µM) was 99.7% and the viability, T/C (second compound 0.1 µM, first compound 0.3 µM) was 88.6%. It also gave a viability, T/C (second compound 0.1 µM, first compound 0.949 µM) of 95.7%, a viability, T/C (second compound 0.1 µM, first compound 3 µM) of 120% and a viability, T/C (second compound 0.316 µM, first compound 0.00949 µM) of 105%. It also gave a viability, T/C (second compound 0.316 µM, first compound 0.03 µM) of 95.1%, a viability, T/C (second compound 0.316 µM, first compound 0.0949 µM) of 105% and a viability, T/C (second compound 0.316 µM, first compound 0.3 µM) of 102%. It also gave a viability, T/C (second compound 0.316 µM, first compound 0.949 µM) of 104%, a viability, T/C (second compound 0.316 µM, first compound 3 µM) of 108% and a viability, T/C (second compound 1 µM, first compound 0.00949 µM) of 110%. For the same molecule, the viability, T/C (second compound 1 µM, first compound 0.03 µM) was 108%, the viability, T/C (second compound 1 µM, first compound 0.0949 µM) was 106% and the viability, T/C (second compound 1 µM, first compound 0.3 µM) was 108%. For the same molecule, the viability, T/C (second compound 1 µM, first compound 0.949 µM) was 95.4% and the viability, T/C (second compound 1 µM, first compound 3 µM) was 106%.
